What was measured:
[1] = test system: bedstraw; assay: Test B pre/postemergence bedstraw; format: in vivo, Galium aparine
Procedure, shortened: (§1)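 Test chemicals in a non-phytotoxic solvent mixture with surfactant were sprayed preemergence onto planted seeds and postemergence onto plants 2 to 18 cm tall (1- to 4-leaf stage). After twelve to sixteen days in a greenhouse, injury was visually rated against untreated controls from 0 (no effect) to 10 (complete control).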

[2] = test system: blackgrass; assay: Test B pre/postemergence blackgrass; format: in vivo, Alopecurus myosuroides
Procedure, shortened: as §1

[3] = test system: surinam grass; assay: Test B pre/postemergence surinam grass; format: in vivo, Brachiaria decumbens
Procedure, shortened: as §1

[4] = test system: cocklebur; assay: Test B pre/postemergence cocklebur; format: in vivo, Xanthium strumarium
Procedure, shortened: as §1

[5] = test system: corn; assay: Test B pre/postemergence corn; format: in vivo, Zea mays
Procedure, shortened: as §1

[6] = test system: crabgrass; assay: Test B pre/postemergence crabgrass; format: in vivo, Digitaria sanguinalis
Procedure, shortened: as §1

[7] = test system: giant foxtail; assay: Test B pre/postemergence giant foxtail; format: in vivo, Setaria faberii
Procedure, shortened: as §1

[8] = test system: morningglory; assay: Test B pre/postemergence morningglory; format: in vivo, Ipomoea hederacea
Procedure, shortened: as §1

[9] = test system: soybean; assay: Test B pre/postemergence soybean; format: in vivo, Glycine max
Procedure, shortened: as §1

[10] = test system: velvetleaf; assay: Test B pre/postemergence velvetleaf; format: in vivo, Abutilon theophrasti
Procedure, shortened: as §1

[11] = test system: wheat; assay: Test B pre/postemergence wheat; format: in vivo, Triticum aestivum
Procedure, shortened: as §1

[12] = test system: wild oat; assay: Test B pre/postemergence wild oat; format: in vivo, Avena fatua
Procedure, shortened: as §1

[13] = test system: purple nutsedge; assay: Test B pre/postemergence purple nutsedge; format: in vivo, Cyperus rotundus
Procedure, shortened: as §1

[14] = test system: rice; assay: Test B flood test rice; format: in vivo, Oryza sativa
Procedure, shortened: (§2)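 Flood test on plants grown to the 2-leaf stage; treated plants kept in greenhouse twelve to sixteen days, then visually rated against controls on a 0 (no effect) to 10 (complete control) scale.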

[15] = test system: smallflower flatsedge; assay: Test B flood test smallflower flatsedge; format: in vivo, Cyperus difformis
Procedure, shortened: as §2

[16] = test system: duck salad; assay: Test B flood test duck salad; format: in vivo, Heteranthera limosa
Procedure, shortened: as §2

[17] = test system: bamyardgrass; assay: Test B flood test barnyardgrass; format: in vivo, Echinochloa crus-galli
Procedure, shortened: as §2

[18] = Postemergence, Rate 125 g/ha, scale 0 to 10, 0 is no effect, 10 is complete control
[19] = Preemergence, Rate 62 g/ha, scale of 0 to 10 where 0 is no effect and 10 is complete control
[20] = Preemergence, Rate 250 g/ha, scale of 0 to 10 where 0 is no effect and 10 is complete control
[21] = Rate 62 g/ha, Postemergence, scale 0 to 10 (0 no effect, 10 complete control)
[22] = Rate 250 g/ha, Postemergence, scale of 0 to 10 where 0 is no effect and 10 is complete control
[23] = Rate 500 g/ha, Postemergence, scale 0 to 10, 0 no effect, 10 complete control
[24] = Preemergence, Rate 500 g/ha, scale of 0 to 10 where 0 is no effect and 10 is complete control
[25] = Rate 62 g/ha, headed Pre-emergence (flood test species), scale 0 to 10 (0 no effect, 10 complete control)
[26] = Rate 125 g/ha, Pre-emergence, flood test species, scale 0 to 10 where 0 is no effect and 10 is complete control
[27] = Rate 250 g/ha, Pre-emergence, flood-test species, scale 0 to 10, 0 is no effect, 10 is complete control
[28] = Rate 500 g/ha, Pre-emergence, flood test species, scale 0 to 10 (0 no effect, 10 complete control)

CC(C)N(C(=O)n1oc(=O)n(-c2ccc3ccccc3c2)c1=O)c1ccc(F)cc1F [Compound 335]
Plant response rating, Bedstraw [1, 18]: 0 | Bedstraw plant response rating [1, 19]: 0 | Bedstraw plant response rating (0 to 10 scale) ([1]; Preemergence, Rate 125 g/ha): 0 | Bedstraw plant response rating [1, 20]: 0 | Bedstraw plant response rating [1, 21]: 0 | Plant response rating, Bedstraw [1, 22]: 0 | Plant response rating, Bedstraw [1, 23]: 4 | Plant response rating, Blackgrass [2, 18]: 0 | Blackgrass plant response rating [2, 19]: 0 | Blackgrass plant response rating (0 to 10 scale) ([2]; Preemergence, Rate 125 g/ha): 0 | Blackgrass plant response rating [2, 20]: 0 | Blackgrass plant response rating [2, 24]: 0 | Blackgrass plant response rating [2, 21]: 0 | Plant response rating, Blackgrass [2, 22]: 0 | Plant response rating, Blackgrass [2, 23]: 0 | Plant response rating, B. signalgrass [3, 18]: 0 | B. signalgrass plant response rating [3, 19]: 0 | B. signalgrass plant response rating (0 to 10 scale, 0 is no effect, 10 is complete control) ([3]; Preemergence, Rate 125 g/ha): 0 | B. signalgrass plant response rating [3, 20]: 0 | B. signalgrass plant response rating [3, 24]: 0 | B. signalgrass plant response rating [3, 21]: 0 | Plant response rating, B. signalgrass [3, 22]: 0 | Plant response rating, B. signalgrass [3, 23]: 0 | Plant response rating, Cocklebur [4, 18]: 0 | Cocklebur plant response rating [4, 19]: 0 | Cocklebur plant response rating (0 to 10 scale) ([4]; Preemergence, Rate 125 g/ha): 0 | Cocklebur plant response rating [4, 20]: 0 | Cocklebur plant response rating [4, 24]: 0 | Cocklebur plant response rating [4, 21]: 0 | Plant response rating, Cocklebur [4, 23]: 0 | Plant response rating, Corn [5, 18]: 0 | Corn plant response rating [5, 19]: 0 | Corn plant response rating (0 to 10 scale) ([5]; Preemergence, Rate 125 g/ha): 0 | Corn plant response rating [5, 20]: 0 | Corn plant response rating [5, 24]: 0 | Corn plant response rating [5, 21]: 0 | Plant response rating, Corn [5, 23]: 0 | Plant response rating, Crabgrass [6, 18]: 0 | Crabgrass plant response rating [6, 19]: 0 | Crabgrass plant response rating (0 to 10 scale) ([6]; Preemergence, Rate 125 g/ha): 0 | Crabgrass plant response rating [6, 20]: 2 | Crabgrass plant response rating [6, 24]: 2 | Crabgrass plant response rating [6, 21]: 0 | Plant response rating, Crabgrass [6, 23]: 0 | Plant response rating, Giant foxtail [7, 18]: 0 | Giant foxtail plant response rating [7, 19]: 2 | Giant foxtail plant response rating (0 to 10 scale) ([7]; Preemergence, Rate 125 g/ha): 4 | Giant foxtail plant response rating [7, 20]: 10 | Giant foxtail plant response rating [7, 24]: 10 | Giant foxtail plant response rating [7, 21]: 0 | Plant response rating, Giant foxtail [7, 23]: 0 | Plant response rating, Morningglory [8, 18]: 0 | Morningglory plant response rating [8, 19]: 0 | Morningglory plant response rating (0 to 10 scale) ([8]; Preemergence, Rate 125 g/ha): 0 | Morningglory plant response rating [8, 20]: 0 | Morningglory plant response rating [8, 24]: 0 | Morningglory plant response rating [8, 21]: 0 | Plant response rating, Morningglory [8, 23]: 0 | Plant response rating, Soybean [9, 18]: 2 | Soybean plant response rating [9, 19]: 0 | Soybean plant response rating (0 to 10 scale) ([9]; Preemergence, Rate 125 g/ha): 0 | Soybean plant response rating [9, 20]: 0 | Soybean plant response rating [9, 24]: 0 | Soybean plant response rating [9, 21]: 1 | Plant response rating, Soybean [9, 23]: 2 | Plant response rating, Velvetleaf [10, 18]: 0 | Velvetleaf plant response rating [10, 19]: 0 | Velvetleaf plant response rating (0 to 10 scale) ([10]; Preemergence, Rate 125 g/ha): 0 | Velvetleaf plant response rating [10, 20]: 0 | Velvetleaf plant response rating [10, 24]: 0 | Velvetleaf plant response rating [10, 21]: 0 | Plant response rating, Velvetleaf [10, 23]: 0 | Plant response rating, Wheat [11, 18]: 0 | Wheat plant response rating [11, 19]: 0 | Wheat plant response rating (0 to 10 scale) ([11]; Preemergence, Rate 125 g/ha): 0 | Wheat plant response rating [11, 20]: 0 | Wheat plant response rating [11, 24]: 0 | Wheat plant response rating [11, 21]: 0 | Plant response rating, Wheat [11, 23]: 0 | Plant response rating, Wild oats [12, 18]: 0 | Wild oats plant response rating [12, 19]: 0 | Wild oats plant response rating (0 to 10 scale) ([12]; Preemergence, Rate 125 g/ha): 0 | Wild oats plant response rating [12, 20]: 0 | Wild oats plant response rating [12, 24]: 0 | Wild oats plant response rating [12, 21]: 0 | Plant response rating, Wild oats [12, 23]: 0 | Plant response rating, Nutsedge [13, 18]: 0 | Nutsedge plant response rating [13, 19]: 0 | Nutsedge plant response rating (0 to 10 scale) ([13]; Preemergence, Rate 125 g/ha): 0 | Nutsedge plant response rating [13, 20]: 0 | Nutsedge plant response rating [13, 24]: 0 | Nutsedge plant response rating [13, 21]: 0 | Plant response rating, Nutsedge [13, 23]: 0 | Rice plant response rating [14, 25]: 0 | Rice plant response rating [14, 26]: 0 | Rice plant response rating [14, 27]: 0 | Rice plant response rating [14, 28]: 0 | S. Flatsedge plant response rating [15, 25]: 0 | S. Flatsedge plant response rating [15, 26]: 0 | S. Flatsedge plant response rating [15, 27]: 0 | S. Flatsedge plant response rating [15, 28]: 0 | Ducksalad plant response rating [16, 25]: 0 | Ducksalad plant response rating [16, 26]: 0 | Ducksalad plant response rating [16, 27]: 0 | Ducksalad plant response rating [16, 28]: 0 | Barnyardgrass plant response rating [17, 25]: 0 | Barnyardgrass plant response rating [17, 26]: 0 | Barnyardgrass plant response rating [17, 27]: 0 | Barnyardgrass plant response rating [17, 28]: 4

— patent US6737383B1, “Herbicidal oxadiazolidines” (priority 1999, dated 2004)
